The source of these data is patent publication US20260356990A1, “HEPARIN DODECASACCHARIDES CONTAINING TWO ANTITHROMBIN-BINDING SEQUENCES AS WELL AS PREPARATION METHODS AND APPLICATIONS THEREOF” (SHANDONG UNIVERSITY, priority 2022, published 2026).

One experiment concerns factor IIa. The experiment can be described thus: anti-factor IIa activity. In kind it is biochemical. As to conditions: in vitro; data not shown.
The subject of experiment [1] is factor Xa. Put plainly: anti-factor Xa (FXa) activity, chromogenic substrate assay kit. Type of experiment: biochemical. As to conditions: in vitro; for IC50 for anti-FXa activity: mass concentration; for IC50: molar concentration. How it is done: The anti-factor Xa (FXa) activity of the novel heparin dodecasaccharides I-2 and I-10 prepared in the present disclosure was determined using a commercially available chromogenic substrate assay kit. […] Therefore, the novel heparin dodecasaccharides I-2 and I-10 prepared in the present disclosure are specific inhibitors of factor Xa.

The subject of experiment [2] is factor Xa. Put plainly: neutralization effect of protamine on the anti-factor Xa activity, chromogenic substrate assay. In kind it is biochemical. As to conditions: in vitro, protamine at different concentrations. The method, then:
Using the chromogenic substrate assay, the effect of different concentrations of protamine on the anti-Factor Xa (FXa) activity of the novel heparin dodecasaccharides I-2 and I-10 was evaluated. […] The in vitro anti-FXa activity of the novel heparin dodecasaccharide I-2 could be reversed by >80% with protamine, as shown in FIG. 4. Therefore, the heparin dodecasaccharides I-2 and I-10 prepared in the present disclosure are novel heparin molecules whose anticoagulant activity can be neutralized by protamine.

The subject of a further experiment is anticoagulant effect. As to conditions: background statement; cited from earlier work.

Consider `CC(=O)N[C@H]1[C@@H](O[C@H]2[C@H](O)[C@@H](O)[C@H](O[C@H]3[C@H](OS(=O)(=O)O)[C@@H](NS(=O)(=O)O)[C@@H](O[C@H]4[C@H](O)[C@@H](OS(=O)(=O)O)[C@H](O[C@H]5[C@H](O)[C@@H](NS(=O)(=O)O)[C@@H](O[C@H]6[C@H](O)[C@@H](O)[C@H](Oc7ccc([N+](=O)[O-])cc7)O[C@@H]6C(=O)O)O[C@@H]5COS(=O)(=O)O)O[C@H]4C(=O)O)O[C@@H]3COS(=O)(=O)O)O[C@@H]2C(=O)O)O[C@H](COS(=O)(=O)O)[C@@H](O[C@@H]2O[C@H](C(=O)O)[C@@H](O[C@H]3O[C@H](COS(=O)(=O)O)[C@@H](O[C@@H]4O[C@@H](C(=O)O)[C@@H](O[C@H]5O[C@H](COS(=O)(=O)O)[C@@H](O[C@@H]6O[C@H](C(=O)O)[C@@H](O[C@H]7O[C@H](COS(=O)(=O)O)[C@@H](O)[C@H](O)[C@H]7NS(=O)(=O)O)[C@H](O)[C@H]6O)[C@H](OS(=O)(=O)O)[C@H]5NS(=O)(=O)O)[C@H](O)[C@H]4OS(=O)(=O)O)[C@H](O)[C@H]3NS(=O)(=O)O)[C@H](O)[C@H]2O)[C@@H]1O` [Compound I-2], for which the “anti-factor IIa activity” value in the experiment with factor IIa is “no significant anti-factor IIa activity”. For the same compound, in the experiment on factor Xa [1], the “IC50 for anti-FXa activity” value stood at 0.01677 µg/mL and 4.34 nM corresponded to half-maximal inhibition (IC50).
For the compound `CC(=O)N[C@H]1[C@@H](O[C@H]2[C@H](O)[C@@H](O)[C@H](O[C@H]3[C@H](OS(=O)(=O)O)[C@@H](NS(=O)(=O)O)[C@@H](O[C@H]4[C@H](O)[C@@H](OS(=O)(=O)O)[C@H](O[C@H]5[C@H](O)[C@@H](NS(=O)(=O)O)[C@@H](O[C@H]6[C@H](O)[C@@H](O)[C@H](Oc7ccc([N+](=O)[O-])cc7)O[C@@H]6C(=O)O)O[C@@H]5COS(=O)(=O)O)O[C@H]4C(=O)O)O[C@@H]3COS(=O)(=O)O)O[C@@H]2C(=O)O)O[C@H](COS(=O)(=O)O)[C@@H](O[C@@H]2O[C@@H](C(=O)O)[C@@H](O[C@H]3O[C@H](COS(=O)(=O)O)[C@@H](O[C@@H]4O[C@@H](C(=O)O)[C@@H](O[C@H]5O[C@H](COS(=O)(=O)O)[C@@H](O[C@@H]6O[C@H](C(=O)O)[C@@H](O[C@H]7O[C@H](COS(=O)(=O)O)[C@@H](O)[C@H](O)[C@H]7NS(=O)(=O)O)[C@H](O)[C@H]6O)[C@H](OS(=O)(=O)O)[C@H]5NS(=O)(=O)O)[C@H](O)[C@H]4OS(=O)(=O)O)[C@H](O)[C@H]3NS(=O)(=O)O)[C@H](O)[C@H]2OS(=O)(=O)O)[C@@H]1O` [Compound I-10], the “reversal of the anti-FXa activity by protamine (in words)” value in the experiment on factor Xa [2] is “completely reversed”. The “anti-factor IIa activity” value with factor IIa is reported as “no significant anti-factor IIa activity”. Further, in the experiment on factor Xa [1], the “IC50 for anti-FXa activity” value is 0.01803 µg/mL and half-maximal inhibition (IC50) was put at 4.54 nM.
Consider `CO[C@H]1O[C@H](COS(=O)(=O)O)[C@@H](O[C@@H]2O[C@@H](C(=O)O)[C@@H](O[C@H]3O[C@H](COS(=O)(=O)O)[C@@H](O[C@@H]4O[C@H](C(=O)O)[C@@H](O[C@H]5O[C@H](COS(=O)(=O)O)[C@@H](O)[C@H](O)[C@H]5NS(=O)(=O)O)[C@H](O)[C@H]4O)[C@H](OS(=O)(=O)O)[C@H]3NS(=O)(=O)O)[C@H](O)[C@H]2OS(=O)(=O)O)[C@H](O)[C@H]1NS(=O)(=O)O` [fondaparinux sodium (Arixtra), reference compound], for which the “reversal of the anti-FXa activity by protamine (in words)” value with factor Xa [2] is “almost completely unneutralizable”. Also, the “neutralization of the anticoagulant effect by protamine (in words)” value in the experiment with anticoagulant effect is “not neutralized by protamine”. In the experiment on factor Xa [1], the “IC50 for anti-FXa activity” value was 0.01263 µg/mL and the IC50 amounted to 7.3 nM.

In general, IC50 refers to the midpoint of a concentration-inhibition curve. Lower therefore signals greater potency.
